Measured values: article PMC5458211, “Mitochondrial VDAC1-based peptides: Attacking oncogenic properties in glioblastoma” (Oncotarget, 2017)
Non-standard residues stand in square brackets, D forms with d. Residues, ends and D or L forms follow the SMILES beside them.

Tests used:
U-118MG cells = test: Cell death by PI staining and flow cytometry, U-118MG; assay type: cell-based, human; details: 6 h at 37°C, serum-free medium, means ± SD (n=3), Fig 1H, read-out: IC50 for inducing cell death
Text: Figure 1 VDAC1-based peptides induce dramatic cell death of several brain tumor-derived cell lines but to lesser extent in primary brain cells A. IHC staining of VDAC1 of human normal brain (n=13) or glioblastoma (n=41) in tissue array slides (Biomax), as described in Materials and methods available online in Supplemental information. Percentages of sections stained at the intensity indicated are shown. […] The VDAC1-derived sequences Δ(1-14)N-terminus and LP4 are in green and pink, respectively. The cell-penetrating peptides Antp and Tf are in orange and blue, respectively. The loop shape of LP4 stabilized by a tryptophan zipper is in purple. The amino acids of Δ(1-14)N-terminus, LP4 and Antp are in the D configuration. The sequences of D-LP4 and Retro-D-LP4 are presented below. C. […] Cells were harvested, washed twice with PBS and cell death was analyzed by propidium iodide (PI) staining and flow cytometry. […] Cells were harvested, washed twice with PBS and cell death was analyzed by PI staining and flow cytometry. […]
Cells (6×10^5 /ml) were incubated in 500 μl serum-free medium with the peptide of interest for 6 h at 37°C in the presence of 5% CO2. The cells were then trypsinized, centrifuged (1500xg, 5 min), washed with PBS and analyzed for cell death using propidium iodide (PI) staining and flow cytometer (Beckton-Dickinson, San Jose, CA) and BD CellQuest Pro software. […]

U-87MG xenograft tumors = test: TUNEL staining of xenograft tumor sections; assay type: in vivo, human U-87MG in nude mice; details: s.c. U-87MG tumor sections; Fig 4A
Text: Red color indicates PI nuclear staining and green color TUNEL staining. B. Representative sections from PBS/DMSO- and peptide-TTs IHC stained for p53, Cyto c, AIF, Caspase 3 and Smac/Diablo and then hematoxylin-stained and visualized by microscopy. C. Tissue lysates obtained from controls and several Tf-D-LP4-TTs were immunoblotted for p53, Caspase 8, Cyto c, Smac/Diablo, Caspase 3 and Bcl-2. D. Quantitative analysis of immunoblots is shown (n=2-4).
Paraffin-embedded -fixed tumors sections were processed for a TUNEL assay using the DeadEnd Fluorometric TUNEL system (Promega) according to the manufacturer's instructions. Sections were deparaffinized, equilibrated in PBS, permeabilized with proteinase K, post-fixed in 4% paraformaldehyde, and incubated in TdT reaction mix for 1 h at 37 °C in the dark. Slides were then washed in 2X SSC buffer and counterstained with propidium iodide (1 μg/ml), and cover-slipped with Vectashield mounting medium. Fluorescent images of apoptotic cells (green) and cell nuclei (red) were captured using a confocal microscope (Olympus 1×81).

| Compound | IC50 (U-118MG cells) [µM] | TUNEL-positive cells (U-87MG xenograft tumors) |
| --- | --- | --- |
| CC[C@@H](C)[C@@H](NC(=O)[C@@H](CCCCN)NC(=O)[C@H](NC(=O)[C@@H](CCC(N)=O)NC(=O)[C@@H](CCCNC(=N)N)NC(=O)[C@@H](CC(C)C)NC(=O)CNC(=O)[C@@H](Cc1ccccc1)NC(=O)CNC(=O)[C@@H](Cc1ccc(O)cc1)NC(=O)CNC(=O)[C@@H](CCCCN)NC(=O)[C@H](NC(=O)[C@@H](Cc1ccccc1)NC(=O)[C@H](NC(=O)[C@@H](CC(=O)O)NC(=O)[C@H](N)CCCNC(=N)N)C(C)C)[C@H](C)O)[C@H](C)CC)C(=O)N[C@H](Cc1c[nH]c2ccccc12)C(=O)N[C@H](Cc1ccccc1)C(=O)N[C@H](CCC(N)=O)C(=O)N[C@H](CC(N)=O)C(=O)N[C@H](CCCNC(=N)N)C(=O)N[C@H](CCCNC(=N)N)C(=O)N[C@H](CCSC)C(=O)N[C@H](CCCCN)C(=O)N[C@H](Cc1c[nH]c2ccccc12)C(=O)N[C@H](CCCCN)C(=O)N[C@H](CCCCN)C(=O)O [D-ΔN-Ter-Antp] (H-[dR][dD][dV][dF][dT][dK]G[dY]G[dF]G[dL][dR][dQ][dI][dK][dI][dW][dF][dQ][dN][dR][dR][dM][dK][dW][dK][dK]-OH; N-terminus and C-terminus assumed) | 5 ± 0.6 | the majority of the cells were TUNEL-positive |
| CC[C@H](C)[C@H](NC(=O)[C@H](C)NC(=O)[C@@H](N)Cc1c[nH]cn1)C(=O)N[C@@H](Cc1ccc(O)cc1)C(=O)N1CCC[C@H]1C(=O)N[C@@H](CCCNC(=N)N)C(=O)N[C@@H](Cc1c[nH]cn1)C(=O)N[C@@H](CO)C(=O)N[C@@H](Cc1c[nH]c2ccccc12)C(=O)N[C@H](C(=O)N[C@@H](Cc1c[nH]c2ccccc12)C(=O)N[C@@H](CCC(=O)O)C(=O)N[C@H](CCCCN)C(=O)N[C@H](CCCCN)C(=O)N[C@H](CC(C)C)C(=O)N[C@H](CCC(=O)O)C(=O)N[C@@H](C(=O)N[C@H](C)C(=O)N[C@@H](C(=O)N[C@H](CC(N)=O)C(=O)N[C@H](CC(C)C)C(=O)N[C@H](C)C(=O)N[C@H](Cc1c[nH]c2ccccc12)C(=O)N[C@@H](C(=O)N[C@H](C)C(=O)NCC(=O)N[C@H](CC(N)=O)C(=O)N[C@H](CO)C(=O)N[C@H](CC(N)=O)C(=O)N[C@@H](CCCCN)C(=O)N[C@@H](Cc1c[nH]c2ccccc12)C(=O)N[C@H](C(=O)N[C@@H](Cc1c[nH]c2ccccc12)C(=O)N[C@@H](CCCCN)C(=O)O)[C@@H](C)O)[C@H](C)O)C(C)C)[C@H](C)O)[C@@H](C)O [Tf-D-LP4] | 1.7 ± 0.3 | the majority of the cells were TUNEL-positive |
